Experimental data reported in US9682925B2, “Cyclopropaneamine compound” (TAKEDA PHARMACEUTICAL COMPANY LIMITED, priority 2011, dated 2017).
Structures can show the parent of a compound that is named as a salt.

Key:
Type in all cases: biochemical
MAO-A = target: T1, MAO-A (Homo sapiens, UniProt P21397); experiment: Measurement of MAO-A inhibitory activity (MAO-Glo Assay)
T1 construct: purchased Sigma-Aldrich Co. LLC
T1 sequence (P21397 1-527): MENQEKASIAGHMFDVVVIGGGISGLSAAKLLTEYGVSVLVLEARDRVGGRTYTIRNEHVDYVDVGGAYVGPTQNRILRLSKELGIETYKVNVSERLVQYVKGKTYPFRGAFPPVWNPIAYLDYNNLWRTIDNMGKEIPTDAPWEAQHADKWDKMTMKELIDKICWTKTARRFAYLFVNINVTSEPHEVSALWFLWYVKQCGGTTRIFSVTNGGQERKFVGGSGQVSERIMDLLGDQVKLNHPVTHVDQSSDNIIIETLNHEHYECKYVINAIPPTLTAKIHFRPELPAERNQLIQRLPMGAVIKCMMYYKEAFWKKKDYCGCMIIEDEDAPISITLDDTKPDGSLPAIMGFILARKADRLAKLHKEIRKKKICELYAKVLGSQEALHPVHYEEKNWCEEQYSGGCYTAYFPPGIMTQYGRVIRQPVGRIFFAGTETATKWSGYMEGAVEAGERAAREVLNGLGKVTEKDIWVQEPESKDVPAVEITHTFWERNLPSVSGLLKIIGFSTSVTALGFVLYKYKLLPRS
In short: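 Luminescent MAO-Glo read-out: % inhibition computed from counts relative to enzyme-only control and enzyme-free blank. Compound and 400 ng MAO-A in HEPES pH 7.5 with 5% glycerol stood 10 min at room temperature before MAO substrate (160 μM stock) started a 60 min reaction.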

human LSD1(171-852) = target: T2, human LSD1(171-852) (Homo sapiens, UniProt O60341); experiment: Measurement of LSD1 inhibitory activity (time-resolved fluorescence, biotin-histone H3 mono methylated K4 peptide); conditions: read-out: LSD1 IC50 value
T2 construct: to give hLSD1(171-852) purified product; made in house; host or cells: Escherichia coli C43(DE3) pLysS

MAO-B = target: T3, MAO-B (Homo sapiens, UniProt P27338); experiment: Measurement of MAO-B inhibitory activity (MAO-Glo Assay)
T3 construct: purchased Sigma-Aldrich Co. LLC
T3 sequence (P27338 1-520): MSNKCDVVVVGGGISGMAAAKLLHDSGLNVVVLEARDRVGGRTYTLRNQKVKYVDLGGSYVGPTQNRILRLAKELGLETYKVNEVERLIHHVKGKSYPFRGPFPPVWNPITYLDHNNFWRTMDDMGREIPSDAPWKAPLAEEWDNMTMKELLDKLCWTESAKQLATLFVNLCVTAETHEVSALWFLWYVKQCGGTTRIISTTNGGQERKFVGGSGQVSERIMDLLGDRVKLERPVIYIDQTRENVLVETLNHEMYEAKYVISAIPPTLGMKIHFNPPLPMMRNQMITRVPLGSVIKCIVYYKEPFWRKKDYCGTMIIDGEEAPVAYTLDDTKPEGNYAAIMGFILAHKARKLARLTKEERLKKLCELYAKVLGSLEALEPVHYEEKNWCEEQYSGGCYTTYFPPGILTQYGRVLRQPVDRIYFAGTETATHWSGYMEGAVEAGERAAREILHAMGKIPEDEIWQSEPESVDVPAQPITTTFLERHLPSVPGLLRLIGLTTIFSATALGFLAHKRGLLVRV
In short: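 Percent inhibition was calculated from luciferin-based luminescence, corrected with a blank lacking enzyme and a control lacking compound. The reaction ran 60 min at room temperature after adding MAO substrate (16 µM as added). This followed a 10 min compound–enzyme preincubation in HEPES pH 7.5 buffer.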

SMILES | IC50 (MAO-A) | IC50 (human LSD1(171-852)) | IC50 (MAO-B)
CN1CCC(CN[C@@H]2C[C@H]2c2ccc(NC(=O)c3cccc(C(F)(F)F)c3)cc2)CC1 (relative stereo) [Example 155, N-{4-[trans-2-{[(1-methylpiperidin-4-yl)methyl]amino}cyclopropyl]phenyl}-3-(trifluoromethyl)benzamide dihydrochloride] | > 10 µM | < 0.1 µM | > 10 µM
O=C(Nc1ccc([C@@H]2C[C@H]2NCC2CC2)cc1)c1cc(-c2ccccc2)no1 (relative stereo) [Example 133, N-(4-{trans-2-[(cyclopropyl-methyl)amino]-cyclopropyl}-phenyl)-3-phenyl-1,2-oxazole-5-carboxamide] | > 10 µM | < 0.1 µM | > 10 µM
O=C(Nc1ccc([C@@H]2C[C@H]2NCC2CC2)cc1)c1ccc(-n2cccn2)cc1 (relative stereo) [Example 94, N-(4-{trans-2-[(cyclopropylmethyl)-amino]cyclopropyl}-phenyl)-4-(1H-pyrazol-1-yl)benzamide] | > 10 µM | < 0.1 µM | > 10 µM
O=C(Nc1ccc([C@@H]2C[C@H]2NCC2CC2)cc1)c1ccc2[nH]ncc2c1 (relative stereo) [Example 99, N-(4-{trans-2-[(cyclopropylmethyl)-amino]cyclopropyl}-phenyl)-1H-indazole-5-carboxamide] | > 10 µM | < 0.1 µM | > 10 µM
O=C(Nc1ccc([C@@H]2C[C@H]2NC2CCN(c3ccccc3)CC2)cc1)c1cccc(C(F)(F)F)c1 (relative stereo) [Example 75, N-(4-{trans-2-[(1-phenylpiperidin-4-yl)amino]cyclopropyl}phenyl)-3-(trifluoromethyl)benzamide dihydrochloride] | > 10 µM | < 0.1 µM | > 10 µM
CC(N[C@@H]1C[C@H]1c1ccc(NC(=O)c2ccccc2)cc1)c1ccccc1 (relative stereo) [Example 19, N-(4-{trans-2-[(1-phenyl-ethyl)amino]-cyclopropyl}-phenyl)benzamide] | > 10 µM | < 0.1 µM | 3.2 µM
O=C(Nc1ccc([C@@H]2C[C@H]2NCC2CC2)cc1)c1ccc(OCc2ccccc2)cc1 (relative stereo) [Example 71, 4-(benzyloxy)-N-(4-{trans-2-[(cyclopropylmethyl)amino]cyclopropyl}phenyl)benzamide hydrochloride] | > 10 µM | < 0.1 µM | > 10 µM
Cc1oc(-c2ccccc2)nc1C(=O)Nc1ccc([C@@H]2C[C@H]2NCC2CC2)cc1 (relative stereo) [Example 122, N-(4-{trans-2-[(cyclopropylmethyl)amino]cyclopropyl}-phenyl)-5-methyl-2-phenyl-1,3-oxazole-4-carboxamide] | > 10 µM | < 0.1 µM | > 10 µM
CN1CCN(c2ccc(C(=O)Nc3ccc([C@@H]4C[C@H]4NCC4CC4)cc3)cc2)CC1 (relative stereo) [Example 130, N-(4-{trans-2-[(cyclopropyl-methyl)amino]cyclo-propyl}phenyl)-4-(4-methylpiperazin-1-yl)benzamide] | > 10 µM | < 0.1 µM | > 10 µM
O=C(Nc1ccc([C@@H]2C[C@H]2NCC2CC2)cc1)c1ccc2nc(-c3ccsc3)[nH]c2c1 (relative stereo) [Example 97, N-(4-{trans-2-[(cyclopropylmethyl)-amino]cyclopropyl}-phenyl)-2-(3-thienyl)-1H-benzimidazole-6-carboxamide] | > 10 µM | < 0.1 µM | > 10 µM
COc1ccc(CN[C@@H]2C[C@H]2c2ccc(NC(=O)c3ccc(-c4ccccc4)cc3)cc2)cc1OC (relative stereo) [Example 46, N-(4-{trans-2-[(3,4-dimethoxy-benzyl)amino]cyclo-propyl}phenyl)-biphenyl-4-carboxamide] | > 10 µM | < 0.1 µM | > 10 µM
O=C(Nc1ccc([C@@H]2C[C@H]2NCC2CC2)cc1)c1ccc(-c2ccncc2)cc1 (relative stereo) [Example 96, N-(4-{trans-2-[(cyclopropylmethyl)-amino]cyclopropyl}-phenyl)-4-(pyridin-4-yl)benzamide] | > 10 µM | < 0.1 µM | > 10 µM

Second part, the molecule after the results:

IC50 (MAO-A) | IC50 (human LSD1(171-852)) | IC50 (MAO-B) | SMILES
> 10 µM | < 0.1 µM | > 10 µM | Cc1cc(C2CC2NCC2CC2)ccc1NC(=O)c1ccccc1 (stereo not drawn) [Example 81, N-(4-{trans-2-[(cyclopropylmethyl)amino]cyclopropyl}-2-methylphenyl)benzamide hydrochloride]
4.3 µM | < 0.1 µM | 3.8 µM | COCC(C)N[C@@H]1C[C@H]1c1ccc(NC(=O)c2ccc(-c3ccccc3)cc2)cc1 (relative stereo) [Example 48, N-(4-{trans-2-[(2-methoxy-1-methyl-ethyl)amino]cyclo-propyl}phenyl)-biphenyl-4-carboxamide]
> 10 µM | < 0.1 µM | > 10 µM | O=C(Nc1ccc([C@@H]2C[C@H]2NC2c3ccccc3-c3ccccc32)cc1)c1ccccc1 (relative stereo) [Example 21, N-{4-[trans-2-(9H-fluoren-9-ylamino)cyclo-propyl]phenyl}-benzamide]
> 10 µM | < 0.1 µM | > 10 µM | O=C(Nc1ccc([C@@H]2C[C@H]2NCC2CC2)cc1)c1cccc(Cn2cncn2)c1 (relative stereo) [Example 147, N-(4-{trans-2-[(cyclopropylmethyl)amino]cyclopropyl}phenyl)-3-(1H-1,2,4-triazol-1-ylmethyl)benzamide hydrochloride]
4.2 µM | < 0.1 µM | > 10 µM | O=C(Nc1ccc([C@@H]2C[C@H]2NCC2CC2)cc1)c1cc(-c2ccccc2)cs1 (relative stereo) [Example 137, N-(4-{trans-2-[(cyclopropylmethyl)amino]cyclopropyl}phenyl)-4-phenylthiophene-2-carboxamide hydrochloride]
0.85 µM | < 0.1 µM | 1.5 µM | COc1ccc(CN[C@@H]2C[C@H]2c2ccc(NC(=O)c3ccc(-c4ccccc4)cc3)cc2)cn1 (relative stereo) [Example 54]
8.2 µM | < 0.1 µM | > 10 µM | O=C(Nc1ccc([C@@H]2C[C@H]2NCC2CC2)cc1)c1cccc(-c2ncccn2)c1 (relative stereo) [Example 139, N-(4-{trans-2-[(cyclopropylmethyl)amino]cyclopropyl}phenyl)-3-(pyrimidin-2-yl)benzamide hydrochloride]
9.9 µM | < 0.1 µM | > 10 µM | O=C(Nc1ccc([C@@H]2C[C@H]2NC2CCNC(c3ccccc3)C2)cc1)c1cccc(C(F)(F)F)c1 (relative stereo) [Example 77, N-(4-{trans-2-[(2-phenylpiperidin-4-yl)amino]cyclopropyl}phenyl)-3-(trifluoromethyl)benzamide dihydrochloride]
3.1 µM | < 0.1 µM | > 10 µM | O=C(Nc1ccc([C@@H]2C[C@H]2NCc2cscn2)cc1)c1cccc(C(F)(F)F)c1 (relative stereo) [Example 72, N-(4-{trans-2-[(1,3-thiazol-4-ylmethyl)amino]cyclopropyl}phenyl)-3-(trifluoromethyl)benzamide dihydrochloride]
